Source: patent US9969755B2, “Photodynamic therapy photosensitizers” (The Royal Institution for the Advancement of …, priority 2016, dated 2018)
Several values for one entry are separate records, joined by “and”; a condition that tells them apart may be missing. Equal values may be shown once.

Key:
Type in all cases: physicochemical
[1] = ^1O2 quantum yield and lifetime, ^1O2 phosphorescence at 1270 nm (direct method); settings: for ΦΔ^D (singlet oxygen quantum yield, direct): ^1O2 phosphorescence at 1270 nm, air equilibrated acetonitrile
Description: The generation of singlet oxygen and its lifetime were determined from ^1O2 phosphorescence decay curves recorded at 1270 nm upon excitation with a 532 nm Nd:YAG laser. A total of 3 laser shots were applied to acquire a trace. […] Quantum yield of ^1O2 production (φΔ^D) were calculated comparing the intensity of ^1O2 phosphorescence at 1270 nm for the corresponding photosensitizer with that recorded for Rose Bengal (φΔ=0.54).^81

[2] = Phosphorescence studies at 77 K; design: unit not given beside the values; settings: from phosphorescence emission spectra, 4:1 EtOH:MeOH
Description: Phosphorescence from compounds 3-6 was observed cooling a 4:1 EtOH:MeOH solution to 77 K with liquid nitrogen. Dilute sample solutions (Abs<0.1) were prepared in NMR tubes and suspended in a coldfinger Dewar (custom-made by Ace Glass) filled with liquid nitrogen.

[3] = Absorption and steady-state fluorescence, fluorescence quantum yield in acetonitrile; settings: for abs λmax / em λmax / Φf (fluorescence quantum yield) / ε (extinction coefficient): acetonitrile, room temperature; for drop in φf following inclusion of I or Br atoms: relative to unsubstituted analogue (1 for 3 and 4; 2 for 5 and 6)
Description: Absorption spectra were recorded using a Hitachi U-2800 UV-vis-NIR spectrophotometer. Luminescence spectra were recorded using a PTI QuantaMaster spectrofluorimeter using 10×10 mm quartz cuvettes and corrected for detector sensitivity.
The steady-state fluorescence spectra were recorded between 500-800 nm (depending on each compound) upon exciting at the wavelength of the absorbance maxima. The excitation and emission slits were tuned according to the fluorescence quantum yield of each BODIPY (i.e. for compound 7 excitation slits were 5 nm and for compound 4 we used 2 nm). Fluorescence was recorded every 1 nm using 0.1 s integration time. For the Fluorescence lifetime measurements, the excitation rate was 10 MHz, and the detection frequency was less than 100 kHz. Photons were collected at the magic angle. The fluorescence decay traces were fit using FluoFit (Picoquant) software. For steady-state and time-resolved fluorescence measurements a quartz cuvette with a 10 mm path length was used and all the solutions were prepared in air equilibrated acetonitrile.
Quantum yields of fluorescence were measured using PM605 in acetonitrile as a reference. Absorption and emission spectra of PM605 and the dye of interest were measured in acetonitrile at five different concentrations. The integrated intensity versus absorbance were then plotted and fitted linearly. Relative quantum yields of fluorescence for the unknown with respect to the standard were obtained from equation 1, where φ, Δ, and n refer, respectively, to the quantum yield, the slope obtained from the above-mentioned plot, and the solvent refractive index for the unknown (x) or standard (st).

[4] = ^1O2 quantum yield, photooxidation of DMA (indirect method); settings: consumption of dimethylanthracene, Rose Bengal standard, air equilibrated acetonitrile
Description: Solutions of 9,10-dimethylanthracene (DMA, 50 μM) and photosensitizers (compound 3-10) in air equilibrated acetonitrile were irradiated in 10 mm path length quartz cell (3 ml) with a Nd:Yag laser exciting at 532 nm. Laser excitation was performed at 10 Hz, providing one laser output for every discharge of the flashlamp. An irradiation time of 1 s is equivalent to 10 laser pulses. The energy of each pulse was 10 mJ. The kinetics of DMA photooxidation were studied by following the decrease of the absorbance at λ=377 nm. The observed rate constant (kobs) was obtained by a linear least-squares fit of the semilogarithmic plot of ln [DMA]0/[DMA] (see FIG. 14). Quantum yields of ^1O2 production (φΔ^I) were calculated comparing the kobs=kq [^1O2] for the corresponding photosensitizer with that for Rose Bengal, which was used as a reference (φΔ=0.54).^1 Measurements of the sample and the reference under the same conditions afforded φΔ^I for compounds (3-10) by direct comparison of the slope in the linear region of the plots.
For the indirect detection of ^1O2, it is possible to determine the kq value considering that the production of ^1O2 is constant compare with the initial concentration of DMA. According to these, a pseudo first-order kinetic for this reaction is proposed (equations 2 to 5): […]
The conversion of DMA followed pseudo-first order kinetics with the different photosensitizers (see FIG. 14). From equation 5, it was possible to determine kobs and ^1O2.

[5] = Electrochemical studies (cyclic voltammetry); design: E^oB^+·/B (reversible oxidation potential): unit not given here; settings: vs ferrocene, acetonitrile
Description: Electrochemical measurements were performed using a three-electrode system. The working electrode was a Pt wire, a Pt mesh wire was used as the counter electrode, and a Ag/AgCl electrode was used as the reference. A 0.1 M solution of tetrabutylammonium hexafluorophosphate in dry acetonitrile was used as the electrolyte solvent in which the compounds were dissolved to 1 mM or to saturation when the latter occurred before reaching a 1 mM concentration. Concentration was determined from their absorption and calculated extinction coefficient. Solutions also contained ferrocene with a concentration of 1 mM as an internal standard. The solutions were equilibrated with argon, and all measurements were conducted under inert atmosphere, with a minimum scan rate of 0.2 V s^−1. When the acquired cyclic voltammograms were not reversible the scan rate was increased up to 1 V s^−1. Formal redox potentials were calculated from the midpoint of the cathodic and anodic peak potentials observed in the cyclic voltammograms. All values were reported vs ferrocene, with the oxidation of ferrocene measured and corrected to zero for all experiments.

[6] = Gibbs free energy for photoinduced electron transfer (equation 6); settings: for ΔGeT (Singlet), Gibbs free energy for PeT: PeT from chromanol to singlet excited state; for ΔGeT (Triplet), Gibbs free energy for PeT: PeT from chromanol to triplet excited state, endergonic
Source text: Consistent with quenching of the singlet via PeT from the chromanol segment, the Gibbs free energy for photoinduced electron transfer (ΔGeT^0) was exergonic for compounds 7 and 8, in the range of 0.4 eV (see Table 3).
Based on these calculations ΔGeT^0 for PeT from the chromanol to the triplet excited state of 3-6 was endergonic, ca. 0.27 eV, accounting for the small intermolecular rate constant of quenching measured for these compounds in the presence of either PMHC or trolox, and for the long triplet decay rate constant kT recorded for compound 8. Importantly, the efficiency of PeT also relies in the distance between the trap segment and the photosensitizers a factor that may additionally contribute to the differences observed between compound 7 (methylene linker) and compound 8 (ester linker).

[7] = Laser flash photolysis: triplet excited state decay and quenching; settings: for kq (triplet quenching rate constant) Q = PMHC: Ar saturated acetonitrile; for Triplet decay rate constant kT: T-T absorption at 430 nm or 550 nm, argon saturated solutions; for kT (triplet decay rate constant) Air equilibrated / kT (triplet decay rate constant) Argon Purged / kq (triplet quenching rate constant) Q = ^3O2: acetonitrile; for kq (triplet quenching rate constant) Q = ^3O2: calculated with oxygen solubility 2.42 mM
Description: The 500 mJ/pulse laser output was attenuated yielding 10 mJ laser pulses of 6 ns in duration. Samples were prepared in acetonitrile. The final absorbance of the BODIPY dyes was 0.1. The concentration was kept low to avoid triplet-triplet annihilation. Each sample was de-oxygenated by purging with argon gas for at least 30 min. Quartz cells containing 10×10 mm path length were used. The decay of the BODIPYs was monitored between 420-440 and 520-550 nm (depending the BODIPY) following the laser excitation. Samples were irradiated with a total of 6 laser shots to acquire the temporal evolution of ΔOD.
A second layer of control was subsequently tested via LFP studies, to monitor the extent to which the trap segment deactivates the triplet excited state of the photosensitizes. […] The two quenchers emulate the trap segments utilized in 7 and 8, respectively.

Compound | ΦΔ^D (singlet oxygen quantum yield, direct) [1] | E (Triplet), energy of the lowest triplet state [2] | E00 (HOMO-LUMO gap from intercept of normalized absorption and emission spectra) [3] | abs λmax [3] | em λmax [3] | Φf (fluorescence quantum yield) [3] | ε (extinction coefficient) [3] | drop in φf following inclusion of I or Br atoms [3] | ΦΔ^I (singlet oxygen quantum yield, indirect) [4] | E^oB^+·/B (reversible oxidation potential) [5] | ΔGeT (Singlet), Gibbs free energy for PeT [6] | ΔGeT (Triplet), Gibbs free energy for PeT [6] | kq (triplet quenching rate constant) Q = PMHC [7] | Triplet decay rate constant kT [7] | kT (triplet decay rate constant) Air equilibrated [7] | kT (triplet decay rate constant) Argon Purged [7] | kq (triplet quenching rate constant) Q = ^3O2 [7] | E^opc (cathodic peak potential) [5] | also measured
CC1=C(I)C(C)=[N+]2C1=C(C)c1c(C)c(I)c(C)n1[B-]2(F)F [Compound 3, 2,6-diiodo-1,3,5,7,8-pentamethyl-pyrromethene fluoroborate] | 0.81 and 0.81 ± 0.02 | 1.70 | 2.33 eV | 521 nm | 545 nm | 0.03 ± 0.01 | 83000 M⁻¹ cm⁻¹ | 27 fold | 0.75 ± 0.04 | 0.88 | −0.37 eV | 0.262 eV | 1.20 ± 0.05 × 10^8 M^−1s^−1 | 17000 s⁻¹ | 4.35 ± 0.02 × 10^6 s^−1 | 1.68 ± 0.02 × 10^4 s^−1 | 1.82 ± 0.03 × 10^9 M^−1s^−1 | – | photodegradation ([1]; under 532 nm irradiation, presumably via photooxidation): photodegrade at a slightly larger pace than 5
CC1=C(Br)C(C)=[N+]2C1=C(C)c1c(C)c(Br)c(C)n1[B-]2(F)F [Compound 4, 2,6-dibromo-1,3,5,7,8-pentamethyl-pyrromethene fluoroborate] | 0.72 ± 0.02 | 1.71 | 2.37 eV | 515 nm | 535 nm | 0.20 and 0.20 ± 0.02 | 79000 M⁻¹ cm⁻¹ | ~4 fold | 0.64 ± 0.03 | 0.89 | −0.38 eV | 0.282 eV | 1.29 ± 0.04 × 10^8 M^−1s^−1 | 27000 s⁻¹ | 4.55 ± 0.03 × 10^6 s^−1 | 2.70 ± 0.02 × 10^4 s^−1 | 1.91 ± 0.02 × 10^9 M^−1s^−1 | – | –
CC(=O)OCC1=C2C(C)=C(I)C(C)=[N+]2[B-](F)(F)n2c(C)c(I)c(C)c21 [Compound 5, 8-Acetoxymethyl-2,6-diiodo-1,3,5,7-tetramethyl Pyrromethene Fluoroborate] | 0.98 and 0.98 ± 0.03 | 1.54 | 2.21 eV | 550 nm | 572 nm | 0.02 ± 0.01 | 96000 M⁻¹ cm⁻¹ | ca. 44 fold | 0.95 ± 0.03 | 0.91 | −0.4 eV | 0.269 eV | 3.95 ± 0.07 × 10^8 M^−1s^−1 | 17000 s⁻¹ | 7.14 ± 0.04 × 10^6 s^−1 | 1.64 ± 0.02 × 10^4 s^−1 | 3.01 ± 0.01 × 10^9 M^−1s^−1 | −1.14 | –
CC(=O)OCC1=C2C(C)=C(Br)C(C)=[N+]2[B-](F)(F)n2c(C)c(Br)c(C)c21 [Compound 6, 8-Acetoxymethyl-2,6-dibromo-1,3,5,7-tetramethyl Pyrromethene Fluoroborate] | 0.84 ± 0.02 | 1.53 | 2.25 eV | 543 nm | 562 nm | 0.14 ± 0.02 | 81000 M⁻¹ cm⁻¹ | ~6 fold | 0.79 ± 0.02 | 0.94 | −0.43 eV | 0.287 eV | 2.23 ± 0.05 × 10^8 M^−1s^−1 | 27000 s⁻¹ | 6.67 ± 0.04 × 10^6 s^−1 | 2.72 ± 0.03 × 10^4 s^−1 | 2.80 ± 0.02 × 10^9 M^−1s^−1 | −1.13 | –
CC1=C(Br)C(C)=[N+]2C1=C(CC1(C)CCc3c(C)c(O)c(C)c(C)c3O1)c1c(C)c(Br)c(C)n1[B-]2(F)F (stereo not drawn) [Compound 7, 8-((6-Hydroxy-2,5,7,8-tetramethylchroman-2-yl)-methyl)-2,6-dibromo-1,3,5,7-tetramethyl] | – | – | – | 532 nm | 557.4 nm | – | 56000 M⁻¹ cm⁻¹ | – | – | – | – | – | – | – | – | – | – | – | ^1O2 generation ([1]; freshly prepared solutions): no ^1O2 generation; drop in φf caused by the trap segment ([3]; 7 compared to reference 4, 8 compared to 5): ca. 25 fold; intramolecular electron transfer rate constant from the singlet state (keT) ([3]; based on φf≤0.008): ≥ 1e+10 s⁻¹; triplet-triplet absorption ([7]; in contrast to precursor 4): unable to detect any triplet-triplet absorption
